The test system of one assay is OCI-AML3 cells. Put plainly: Proliferation assay, OCI-AML3 (CellTiter-Glo, 7 days). The class given is cell-based, human. Conditions: Homo sapiens, OCI-AML-3, 168 h. The gist of the method:
(§1)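 Cells seeded at 125 (MOLM-13), 300 (MV4;11), 75 (OCI-AML3) or 200 (HEL) per well were exposed to 3.16-fold compound dilutions (0.1% DMSO) for 7 days at 37° C. Viability by CellTiter-Glo luminescence, normalized to DMSO (100%) and day-0 plate (0%); IC50 from one-site dose-response fit.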
In general terms: Cellular ATP, detected with luciferase, serves as a proxy for viable cell number.

The test system of the next assay is HEL cells. Nature of the assay: Proliferation assay, HEL control cell line (CellTiter-Glo, 7 days). The class given is cell-based, human. The gist of the method: as §1
The target of assay [1] is T1, muscarinic M2 receptor (Homo sapiens (Human), UniProt P08172). Nature of the assay: Muscarinic M2 receptor binding assay (assay 1). Conditions: [3H]AF-DX 384 2 nM, Cheng Prusoff. The gist of the method:
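Membrane homogenates (60 μg protein) were incubated with 2 nM [3H]AF-DX 384 for 60 min at 22° C in Tris-HCl pH 7.4 with NaCl, KCl, MgCl2 and EDTA; 1 μM atropine defined nonspecific binding. Filtration and scintillation counting gave percent inhibition of specific binding, with Ki by Cheng-Prusoff.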

Assay [2] concerns the target T1, muscarinic M2 receptor. Put plainly: Muscarinic M2 receptor functional assay, antagonist effect (assay 2). The class given is cell-based. Conditions: cAMP, 1 μM acetylcholine. As to the method: Thereafter, the reference agonist acetylcholine and the adenylyl cyclase activator NKH 477 were added at respective final concentrations of 1 μM and 5 μM. For basal control measurements, acetylcholine was omitted from the wells containing 10 μM methoctramine. Following 10 minutes incubation at 37° C., the cells were lysed, and the fluorescence acceptor (D2-labeled cAMP) and fluorescence donor (anti-cAMP antibody labelled with europium cryptate) were added. After 60 minutes at room temperature, the fluorescence transfer was measured at λex=337 nm and λem=620 and 665 nm using a microplate reader (Rubystar, BMG). The cAMP concentration was determined by dividing the signal measured at 665 nm by that measured at 620 nm (ratio). The results were expressed as a percent inhibition of the control response to 1 μM acetylcholine. For test compounds and for standard reference antagonist methoctramine, which is tested in each experiment, assays were run in eight-point concentration response mode and IC50 values determined following non-linear regression curve analysis. Curve analysis was completed using software developed at Cerep (Hill software) and validated by comparison with data generated by the commercial software SigmaPlot®4.0 for Windows® (© 1997 by SPSS Inc.).

For a further assay, the target named is hERG (Homo sapiens (Human), UniProt Q12809). Put plainly: hERG assay 2, QPatch II 48X, room temperature. The class given is cell-based. The settings on record: hERG DUO cell line, top 200 μM. As to the method: Experiments were performed on the QPatch II 48X (Sophion Biosciences) high throughput patch clamp platform at room temperature and used single hole Qplates. hERG DUO cell line (BSys) was used. The internal patch clamp solution was KF 60 mM, KCl 70 mM, HEPES 10 mM, EGTA 10 mM, and 5 mM Mg ATP (pH7.2). After sealing and whole cell access was gained the external solution (NaCl 140 mM, KCl 4 mM, HEPES 10 mM, CaCl2 2 mM, MgCl2 1 mM, glucose 5 mM (pH 7.4) was applied twice to establish stable baseline currents. An industry standard +40/−40 mV voltage protocol was applied every 15 seconds. All compounds were tested in a 6-point cumulative assay (final DMSO concentration 0.4-2% depending on stock concentration of compounds). Compounds were dispensed from initial 10 mM or 50 mM DMSO stocks after which DMSO dilutions were undertaken with a top concentration of 200 μM tested. Solvent controls were run in all experiments in line with the DMSO % required. Only wells that passed acceptance criteria for this platform were used in this analysis (500 MegaOhm seal resistance and current size >0.2 nA). Analysis was completed in Prism Graphpad to complete a composite IC50, by plotting % inhibition versus log compound concentration and using a log(inhibitor) vs. response—Variable slope.
hERG, sequence (Q12809 whole entry): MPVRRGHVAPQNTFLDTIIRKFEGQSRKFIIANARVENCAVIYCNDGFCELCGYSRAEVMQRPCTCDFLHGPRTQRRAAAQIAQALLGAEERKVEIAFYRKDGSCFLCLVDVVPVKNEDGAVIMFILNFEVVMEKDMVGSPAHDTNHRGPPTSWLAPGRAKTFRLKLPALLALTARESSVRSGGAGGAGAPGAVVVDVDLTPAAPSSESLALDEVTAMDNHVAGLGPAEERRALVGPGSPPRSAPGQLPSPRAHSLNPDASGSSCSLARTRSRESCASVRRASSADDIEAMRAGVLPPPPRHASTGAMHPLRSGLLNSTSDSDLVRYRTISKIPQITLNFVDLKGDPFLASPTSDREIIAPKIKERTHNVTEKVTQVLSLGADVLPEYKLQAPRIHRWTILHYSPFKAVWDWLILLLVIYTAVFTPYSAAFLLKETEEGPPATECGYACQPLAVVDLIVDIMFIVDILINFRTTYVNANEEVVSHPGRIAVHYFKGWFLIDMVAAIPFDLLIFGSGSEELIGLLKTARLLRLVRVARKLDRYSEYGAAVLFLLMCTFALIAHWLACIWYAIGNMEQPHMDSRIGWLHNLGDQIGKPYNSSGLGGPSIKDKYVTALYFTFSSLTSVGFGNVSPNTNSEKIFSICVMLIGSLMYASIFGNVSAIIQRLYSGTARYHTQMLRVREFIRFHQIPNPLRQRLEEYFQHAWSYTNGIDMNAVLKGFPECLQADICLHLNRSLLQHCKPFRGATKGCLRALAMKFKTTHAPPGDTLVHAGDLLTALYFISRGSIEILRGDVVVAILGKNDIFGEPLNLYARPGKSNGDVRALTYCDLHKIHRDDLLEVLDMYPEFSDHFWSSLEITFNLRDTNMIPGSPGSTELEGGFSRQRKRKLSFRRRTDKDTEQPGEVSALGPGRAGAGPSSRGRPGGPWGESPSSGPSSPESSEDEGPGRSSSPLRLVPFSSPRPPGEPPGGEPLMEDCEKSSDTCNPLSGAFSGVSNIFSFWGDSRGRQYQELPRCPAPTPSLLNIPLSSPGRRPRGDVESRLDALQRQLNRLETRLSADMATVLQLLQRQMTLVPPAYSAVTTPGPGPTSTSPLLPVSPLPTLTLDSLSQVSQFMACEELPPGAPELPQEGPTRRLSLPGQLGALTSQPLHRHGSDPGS
On the technique in general: hERG is a cardiac potassium channel; its block is linked to QT prolongation.

Like-named read-outs stand apart in the source and are kept apart here.

T1 sequence (P08172 whole entry): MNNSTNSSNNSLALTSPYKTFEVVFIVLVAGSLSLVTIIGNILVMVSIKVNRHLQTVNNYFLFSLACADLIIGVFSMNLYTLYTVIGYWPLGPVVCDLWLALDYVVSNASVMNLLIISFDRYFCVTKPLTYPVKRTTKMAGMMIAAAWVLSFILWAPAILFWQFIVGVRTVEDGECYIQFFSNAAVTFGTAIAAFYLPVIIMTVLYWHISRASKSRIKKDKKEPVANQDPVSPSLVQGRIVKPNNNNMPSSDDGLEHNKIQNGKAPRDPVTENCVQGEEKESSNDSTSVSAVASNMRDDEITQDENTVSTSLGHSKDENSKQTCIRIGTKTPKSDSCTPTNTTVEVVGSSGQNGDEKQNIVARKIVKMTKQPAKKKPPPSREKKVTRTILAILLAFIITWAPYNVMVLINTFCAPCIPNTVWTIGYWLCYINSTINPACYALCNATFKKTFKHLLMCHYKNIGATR

As for `Cc1c(C(=O)C2CCN(C(=O)[C@@H]3CCC4(CC4)N3)CC2)c2ccncc2n1-c1ccc(F)cc1C(=O)N1[C@H](C)COC[C@H]1C` (single isomer, unassigned) [Example 58-2], the half-inhibitory concentration (IC50) (in general, the concentration that gives 50% inhibition) with OCI-AML3 cells is 0.035 µM; with HEL cells, greater than 10 µM; at muscarinic M2 receptor [2] it was 8.6 µM. For the same compound, the inhibition constant Ki – broadly, a measure of affinity in units of concentration, obtained from inhibition or displacement – on muscarinic M2 receptor [1] is 4.2 µM.

On to `CC(C)N(C(=O)c1cc(F)ccc1-n1cc(C(=O)[C@H]2CCN(C(=O)[C@H]3N[C@@H]4CC[C@H]3C4)C2)c2ccncc21)C(C)C` [Example 2, 2-(3-((S)-1-((1R,3S,4S)-2-Azabicyclo[2.2.1]heptane-3-carbonyl)pyrrolidine-3-carbonyl)-1H-pyrrolo[2,3-c]pyridin-1-yl)-5-fluoro-N,N-diisopropylbenzamide], for which the IC50 is 0.126 µM in the assay with OCI-AML3 cells; greater than 10 µM in the assay on HEL cells (Homo sapiens, HEL, 168 h); greater than 200 µM against hERG; 5.2 µM against muscarinic M2 receptor [2]. On muscarinic M2 receptor [1], this compound displayed a Ki of 0.8 µM.

Consider `CC(C)N(C(=O)c1cc(F)ccc1-n1cc(C(=O)C2CN(C(=O)[C@H]3N[C@@H]4CC[C@H]3C4)C2)c2ccncc21)C(C)C` [Example 5, 2-(3-(1-((1R,3S,4S)-2-Azabicyclo[2.2.1]heptane-3-carbonyl)azetidine-3-carbonyl)-1H-pyrrolo[2,3-c]pyridin-1-yl)-5-fluoro-N,N-diisopropylbenzamide], for which the half-inhibitory concentration (IC50) in the assay with OCI-AML3 cells is 0.125 µM; in the assay with HEL cells (Homo sapiens, HEL, 168 h), greater than 10 µM; at hERG, greater than 200 µM; on muscarinic M2 receptor [2], greater than 100 µM. Further, at muscarinic M2 receptor [1], the Ki came out at 6.6 µM.

For `CC(C)N(C(=O)c1cc(F)ccc1-n1cc(C(=O)C2CCN(C(=O)[C@H]3N[C@@H]4CC[C@H]3C4)CC2)c2ccncc21)C(C)C` [Example 16, 2-(3-(1-((1R,3S,4S)-2-Azabicyclo[2.2.1]heptane-3-carbonyl)piperidine-4-carbonyl)-1H-pyrrolo[2,3-c]pyridin-1-yl)-5-fluoro-N,N-diisopropylbenzamide], the IC50 is 0.051 µM with OCI-AML3 cells; greater than 10 µM in the assay with HEL cells (Homo sapiens, HEL, 168 h); 128 µM at hERG; 1.1 µM against muscarinic M2 receptor [2]. Also, the inhibitory constant (Ki) at muscarinic M2 receptor [1] worked out at 0.2 µM.

`CC(C)N(C(=O)c1cc(F)ccc1-n1cc(C(=O)C2CCN(C(=O)[C@H]3NC[C@@H]4C[C@@H]43)CC2)c2ccncc21)C(C)C` [Example 19, 2-(3-(1-((1S,2S,5R)-3-Azabicyclo[3.1.0]hexane-2-carbonyl)piperidine-4-carbonyl)-1H-pyrrolo[2,3-c]pyridin-1-yl)-5-fluoro-N,N-diisopropylbenzamide]: the IC50 in the assay with HEL cells (Homo sapiens, HEL, 168 h) is greater than 10 µM; on hERG, 128 µM; at muscarinic M2 receptor [2], 21.3 µM. This compound had a Ki at muscarinic M2 receptor [1] of 1.4 µM.

Take `CC(C)N(C(=O)c1cc(F)ccc1-n1cc(C(=O)C2CCN(C(=O)[C@H]3NC4CCC3CC4)CC2)c2ccncc21)C(C)C` [Example 20, (S)-2-(3-(1-(2-Azabicyclo[2.2.2]octane-3-carbonyl)piperidine-4-carbonyl)-1H-pyrrolo[2,3-c]pyridin-1-yl)-5-fluoro-N,N-diisopropylbenzamide]: the IC50 is greater than 10 µM with HEL cells (Homo sapiens, HEL, 168 h); greater than 200 µM against hERG; 5.2 µM on muscarinic M2 receptor [2]. For the same compound, on muscarinic M2 receptor [1], the inhibition constant (Ki) amounted to 0.8 µM.

On to `CCN(C(=O)c1cc(F)ccc1-n1c(C)c(C(=O)C2CCN(C(=O)[C@H]3NC[C@@H]4C[C@@H]43)CC2)c2ccncc21)C(C)C` [Example 47, 2-(3-(1-((1S,2S,5R)-3-Azabicyclo[3.1.0]hexane-2-carbonyl)piperidine-4-carbonyl)-2-methyl-1H-pyrrolo[2,3-c]pyridin-1-yl)-N-ethyl-5-fluoro-N-isopropylbenzamide], for which the IC50 in the assay on OCI-AML3 cells is 0.026 µM; with HEL cells (Homo sapiens, HEL, 168 h) it was greater than 10 µM; at hERG it was 194 µM; at muscarinic M2 receptor [2], 62.8 µM. In addition, the Ki at muscarinic M2 receptor [1] was 7.3 µM.
